Reference: patent publication US20080249028A1, “Thyrotropin-Releasing Hormone Analogs and Method of Use” (Roger Williams Hospital, priority 2005, published 2008)

Legend:
Sprague-Dawley rats = assay: Blood glucose level in rats given compound alone (no STZ); format: in vivo, rat; conditions: Table 1, rats, TRH alone (no STZ)
Protocol: (§1) Male Sprague-Dawley rats (S.D. 180 g) were used in the experiments described below. The animals lived in individual metabolism cages with free access to food and water, while food and body weight were monitored daily. Peripheral blood samples (approximately 10 μl) were obtained from the tail vein of the animals. The blood glucose levels were measured by using Accu-Check Blood Glucose Meter (Roche Diagnosetics Corporation, IN). Beta cell function was evaluated once every two days over a 2-week period by an individual unaware of the treatment group. Animals were evaluated separately for blood glucose level, food intake and body weight. The endpoint check was pancreatic insulin content and pancreatic beta cell number.
(§2) The figures shown in the tables are blood glucose levels (mg/dL; i.e., milligrams of glucose per deciliter of blood).

[1] = system: pancreatic beta cell function; assay: Beta cell function evaluation after pancreatic damage; format: in vivo, rat; conditions: at 2 weeks after pancreatic damage
Protocol: as §1

[2] = system: STZ-induced hyperglycemic rats; assay: Serum insulin assay after TRH treatment of STZ rats; format: in vivo, rat; conditions: following TRH vs. control and STZ groups
Protocol: (§3) Partial pancreatic tissue was extracted with 1 N glacial acetic acid for insulin assay by ELISA. Four animals were used in each group. Each pancreas was placed in head (central) to tail (peripheral) orientation and immediately snap frozen and kept at −80° C. This orientation of the tissue provided an opportunity for sectioning of equal surface areas when cutting the frozen tissue. In this manner, the pancreas sections included every portion of the pancreas in parallel, while avoiding variations caused by sectioning from different areas. The HE histological staining was performed on serial sections (5 um thick) and islets were counted in 10 slides for each sample and standardized by dividing the total area (islets/cm^2).
(§4) A group of animals were given a single dose i.p. of 20 μg/kg BW or 5-40 μg BW of TRH or TRH analogs on the seventh day or on the third day after STZ administration, which allowed for examination of the TRH/TRH analog treatment and the degree of pancreatic damage in the diabetic animal. Again, food intake, body weight and blood glucose levels of each of the animals were monitored. When hyperglycemia was determined to be reversed by TRH/TRH analog, the animal was sacrificed. Blood samples were collected for insulin assay and the pancreas and muscles were collected for further pathological and physiological tests.

[3] = in vivo; cited from earlier work
[4] = system: STZ-induced hyperglycemic rats; assay: Effect on STZ-induced hyperglycemia in rats (blood glucose level); format: in vivo, rat; conditions: for blood glucose level: Table 1, rats, STZ + compound i.p.
Protocol: as §1
Streptozotocin (STZ) was used to chemically induce damage in pancreatic function in order to create a hyperglycemic state in the animals. Eight-week old male Sprague-Dawley rats (200.00 g±10 g) were injected with STZ by intraperitoneal (i.p.) (65 mg/kg body weight (BW)) to create hyperglycemic animals (24 to 48 hours). Blood glucose levels were monitored daily. Onset of hyperglycemia occurred usually about 24 to 48 hours after STZ administration.
as §4, with “A group of animals were given a single dose i.p. of 20 μg/kg BW or 5-40 μg BW of TRH or TRH analogs on” left out
as §2

rat = conditions: injection of TRH into the rat brain; cited from earlier work
pancreatic islets = assay: Pancreatic islet count (HE histological staining); format: in vivo, rat; conditions: by activation of the TRH receptor
Protocol: as §3

Which results are given for `NC(=O)[C@@H]1CCCN1C(=O)[C@H](Cc1cnc[nH]1)NC(=O)[C@@H]1CCC(=O)N1` [TRH, L-pyroglutamyl-L-histidyl-L-prolineamide, reference compound]?
blood glucose level (Sprague-Dawley rats; Day 1): 101.5 mg/dL; blood glucose level (Sprague-Dawley rats; Day 2): 125 mg/dL; blood glucose level (Sprague-Dawley rats; Day 4): 125 mg/dL; blood glucose level (Sprague-Dawley rats; Day 9): 96 mg/dL; blood glucose level (Sprague-Dawley rats; Day 15): 82.5 mg/dL; blood glucose level (Sprague-Dawley rats; Day 22): 89 mg/dL; blood glucose level (Sprague-Dawley rats; Day 29): 74.5 mg/dL; blood glucose level (Sprague-Dawley rats; Day 39): 80 mg/dL; blood glucose level (Sprague-Dawley rats; Day 43): 90.5 mg/dL; blood glucose level (Sprague-Dawley rats; Day 50): 93 mg/dL; blood glucose level (Sprague-Dawley rats; Day 53): 78 mg/dL; blood glucose level (Sprague-Dawley rats; Day 56): 75 mg/dL; blood glucose level (Sprague-Dawley rats; Day 60): 67 mg/dL; blood glucose level (Sprague-Dawley rats; Day 64): 85 mg/dL; pancreatic endocrine outcome [1]: improved; levels of insulin in the serum [2]: increased; plasma half-life [3]: 4 to 5 min; hyperglycemia ([4]; TRH administration on day 3 following STZ injection, after 6 days): reversed the hyperglycemia; blood glucose level ([4]; Day 1): 107.8 mg/dL; blood glucose level ([4]; Day 2): 321.4 mg/dL; blood glucose level ([4]; Day 4): 448.8 mg/dL; blood glucose level ([4]; Day 9): 191.2 mg/dL; blood glucose level ([4]; Day 15): 182.6 mg/dL; blood glucose level ([4]; Day 22): 380.2 mg/dL; blood glucose level ([4]; Day 29): 337 mg/dL; blood glucose level ([4]; Day 39): 283.4 mg/dL; blood glucose level ([4]; Day 43): 220.4 mg/dL; blood glucose level ([4]; Day 50): 182 mg/dL; blood glucose level ([4]; Day 53): 151 mg/dL; blood glucose level ([4]; Day 56): 139 mg/dL; blood glucose level ([4]; Day 60): 180 mg/dL; blood glucose level ([4]; Day 64): 156 mg/dL; glucose levels over time ([4]; rat treated with TRH after STZ-induced hyperglycemia, over a two month time period): continually decreased; STZ induced hyperglycemia ([4]; rats, after seven days of TRH and STZ treatment): normalized; blood glucose levels (rat): reduce blood glucose levels; number of pancreatic islets (pancreatic islets): increases
